# Results reported in ChEMBL document CHEMBL4819020, “Discovery of [1,2,4]triazolo[1,5-a]pyrimidines derivatives as potential anticancer agents” (Eur J Med Chem, 2021).
# The source made the active and inactive calls. No cut-off for these calls is given here.
# Assays:
# MGC-803 [1] = assay: Cell cycle arrest in human MGC-803 cells assessed as accumulation of cells in G0/G1 phase at 3 uM measured after 24 hrs by PI staining based flow cytometry assay (reference value: 49.39%); format: functional
# MGC-803 [2] = assay: Induction of apoptosis in human MGC-803 cells assessed as decrease in Bcl-2 expression at 0.75 to 3 uM measured after 48 hrs by western blot assay; format: functional, cell-based; conditions: dose 0.75-3 µM
# MGC-803 [3] = assay: Antiproliferative activity against human MGC-803 cells assessed as cell viability measured at 0.75 to 3 uM by MTT assay; format: functional, cell-based; conditions: dose 0.75-3 µM, time 24-72 hrs, TDE = time-dependent effect
# MGC-803 [4] = assay: Antiproliferative activity against human MGC-803 cells assessed as inhibition of colony formation at 0.125 to 0.5 uM measured after 7 days by crystal violet dye based colony formation assay; format: functional, cell-based; conditions: dose 0.125-0.5 µM, time 7.0 day
# MGC-803 [5] = assay: Cell cycle arrest in human MGC-803 cells assessed as accumulation of cells in S phase at 0.75 uM measured after 24 hrs by PI staining based flow cytometry assay (reference value: 18.03%); format: functional
# MGC-803 [6] = assay: Antiproliferative activity against human MGC-803 cells assessed as inhibition of cell proliferation measured after 72 hrs by MTT assay; format: functional, cell-based; conditions: MGC-803, 72 h
# MGC-803 [7] = assay: Induction of apoptosis in human MGC-803 cells assessed as viable cells at 1.5 uM measured after 48 hrs by Annexin V-FITC/PI staining based flow cytometry method (reference value: 92.3 %); format: functional; conditions: read-out: Activity
# [8] = Toxicity in mouse assessed as effect on spleen at 2 mg/kg, ig measured after 2 weeks by H and E staining based microscopic method; format: organism-based; conditions: in vivo, po, 336 h
# MGC-803 [9] = assay: Cell cycle arrest in human MGC-803 cells assessed as accumulation of cells in S phase at 1.5 uM measured after 24 hrs by PI staining based flow cytometry assay (reference value: 18.03%); format: functional
# MCF7 = assay: Antiproliferative activity against human MCF7 cells assessed as inhibition of cell proliferation measured after 72 hrs by MTT assay; format: functional, cell-based; conditions: MCF7, 72 h
# MGC-803 [10] = assay: Induction of apoptosis in human MGC-803 cells assessed as increase in cleaved caspase expression at 0.75 to 3 uM measured after 48 hrs by western blot assay; format: functional, cell-based; conditions: dose 0.75-3 µM
# [11] = Toxicity in mouse assessed as effect on liver at 2 mg/kg, ig measured after 2 weeks by H and E staining based microscopic method; format: organism-based; conditions: in vivo, po, 336 h
# MGC-803 [12] = assay: Antiproliferative activity against human MGC-803 cells assessed as cell viability measured after 24 to 72 hrs by MTT assay; format: functional, cell-based; conditions: dose 0.75-3 µM, time 24-72 hrs
# [13] = Toxicity in mouse assessed as mouse survival at 2 mg/kg, ig measured after 2 weeks; format: organism-based; conditions: in vivo, po, 336 h
# GES1 = assay: Antiproliferative activity against human GES1 cells assessed as inhibition of cell proliferation measured after 72 hrs by MTT assay; format: cell-based; conditions: GES1, 72 h
# MGC-803 [14] = assay: Induction of apoptosis in human MGC-803 cells assessed by nuclear fragmentation at 0.75 to 3 uM measured after 48 hrs by Hoechst 33342 staining based microscopic method; format: functional, cell-based; conditions: dose 0.75-3 µM
# MGC-803 [15] = assay: Induction of apoptosis in human MGC-803 cells assessed as early apoptotic cells at 3 uM measured after 48 hrs by Annexin V-FITC/PI staining based flow cytometry method (reference value: 0.992 %); format: functional
# MGC-803 [16] = assay: Induction of apoptosis in human MGC-803 cells assessed as viable cells at 0.75 uM measured after 48 hrs by Annexin V-FITC/PI staining based flow cytometry method (reference value: 92.3 %); format: functional; conditions: read-out: Activity
# MGC-803 [17] = assay: Induction of apoptosis in human MGC-803 cells assessed as upregulation of Bax at 0.75 to 3 uM measured after 48 hrs by western blot assay; format: functional, cell-based; conditions: dose 0.75-3 µM
# MGC-803 [18] = assay: Induction of apoptosis in human MGC-803 cells assessed as necrotic cells at 1.5 uM measured after 48 hrs by Annexin V-FITC/PI staining based flow cytometry method (reference value: 3.60 %); format: functional
# MGC-803 [19] = assay: Cell cycle arrest in human MGC-803 cells assessed as accumulation of cells in G0/G1 phase at 1.5 uM measured after 24 hrs by PI staining based flow cytometry assay (reference value: 49.39%); format: functional
# [20] = Selectivity index, ratio of EC50 for human MGC-803 cells to EC50 for human GES1 cells
# MGC-803 [21] = assay: Induction of apoptosis in human MGC-803 cells assessed as late apoptotic cells at 3 uM measured after 48 hrs by Annexin V-FITC/PI staining based flow cytometry method (reference value: 3.10 %); format: functional
# MGC-803 [22] = assay: Cell cycle arrest in human MGC-803 cells assessed as accumulation of cells in S phase at 3 uM measured after 24 hrs by PI staining based flow cytometry assay (reference value: 18.03%); format: functional
# MGC-803 [23] = assay: Induction of apoptosis in human MGC-803 cells assessed by increase in ROS production at 3 uM measured after 24 hrs by DCFH-DA staining based flow cytometry; format: functional, cell-based
# PC-9 = assay: Antiproliferative activity against human PC-9 cells assessed as inhibition of cell proliferation measured after 72 hrs by MTT assay; format: functional, cell-based; conditions: PC-9, 72 h
# MGC-803 [24] = assay: Induction of apoptosis in human MGC-803 cells assessed as necrotic cells at 3 uM measured after 48 hrs by Annexin V-FITC/PI staining based flow cytometry method (reference value: 3.60 %); format: functional
# MGC-803 [25] = assay: Induction of apoptosis in human MGC-803 cells assessed as early apoptotic cells at 1.5 uM measured after 48 hrs by Annexin V-FITC/PI staining based flow cytometry method (reference value: 0.992 %); format: functional
# MGC-803 [26] = assay: Induction of apoptosis in human MGC-803 cells assessed by formation of apoptotic bodies at 0.75 to 3 uM measured after 48 hrs by Hoechst 33342 staining based microscopic method; format: functional, cell-based; conditions: dose 0.75-3 µM
# MGC-803 [27] = assay: Inhibition of cell migration in human MGC-803 cells measured after 48 hrs by wound healing assay; format: functional, cell-based; conditions: dose 0.25-1 µM
# MGC-803 [28] = assay: Cell cycle arrest in human MGC-803 cells assessed as accumulation of cells in G2/M phase at 1.5 uM measured after 24 hrs by PI staining based flow cytometry assay (reference value: 33.35%); format: functional
# MGC-803 [29] = assay: Induction of cell cycle arrest in human MGC-803 cells assessed as increase in p27 expression at 0.75 to 3 uM measured after 24 hrs by western blot assay; format: functional, cell-based; conditions: dose 0.75-3 µM
# MGC-803 [30] = assay: Induction of apoptosis in human MGC-803 cells assessed as late apoptotic cells at 0.75 uM measured after 48 hrs by Annexin V-FITC/PI staining based flow cytometry method (reference value: 3.10 %); format: functional
# MGC-803 [31] = assay: Induction of apoptosis in human MGC-803 cells assessed as increase in p53 expression at 0.75 to 3 uM measured after 48 hrs by western blot assay; format: functional, cell-based; conditions: dose 0.75-3 µM
# [32] = Toxicity in mouse assessed as effect on heart at 2 mg/kg, ig measured after 2 weeks by H and E staining based microscopic method; format: organism-based; conditions: in vivo, po, 336 h
# MGC-803 [33] = assay: Inhibition of cell migration in human MGC-803 cells measured after 48 hrs by transwell assay; format: functional, cell-based; conditions: dose 0.25-1 µM
smiles,measurement,setting,value
Cc1cc(Nc2ccn(Cc3nc(C)c4ccccc4n3)n2)n2nc(SCc3ccc(Br)cc3)nc2n1,Activity,MGC-803 [1],69.99%
same,Activity,MGC-803 [2],Dose-Dependent Effect
same,Activity,MGC-803 [3],Tde
same,Activity,MGC-803 [4],Active
same,Activity,MGC-803 [5],22.83%
same,IC50,MGC-803 [6],0.96 µM
same,viability at 1.5 µM,MGC-803 [7],80.3%
same,Activity,[8],Non-Toxic
same,Activity,MGC-803 [9],20.75%
same,IC50,MCF7,1.43 µM
same,Activity,MGC-803 [10],Dose-Dependent Effect
same,Activity,[11],Non-Toxic
same,Activity,MGC-803 [12],Dose-Dependent Effect
same,Activity,[13],Non-Toxic
same,IC50,GES1,36.8 µM
same,Activity,MGC-803 [14],Dose-Dependent Effect
same,Activity,MGC-803 [15],19.3%
same,viability at 0.75 µM,MGC-803 [16],89.1%
same,Activity,MGC-803 [17],Dose-Dependent Effect
same,Activity,MGC-803 [18],2.47%
same,Activity,MGC-803 [19],57.78%
same,Ratio EC50,[20],38
same,Activity,MGC-803 [21],27.7%
same,Activity,MGC-803 [22],18.5%
same,Activity,MGC-803 [23],Active
same,IC50,PC-9,5.45 µM
same,Activity,MGC-803 [24],24.9%
same,Activity,MGC-803 [25],6.85%
same,Activity,MGC-803 [26],Dose-Dependent Effect
same,Activity,MGC-803 [27],Dose-Dependent Effect
same,Activity,MGC-803 [28],14.61%
same,Activity,MGC-803 [29],Dose-Dependent Effect
same,Activity,MGC-803 [30],5.23%
same,Activity,MGC-803 [31],Dose-Dependent Effect
same,Activity,[32],Non-Toxic
same,Activity,MGC-803 [33],Dose-Dependent Effect
